Legend:
ORYSAT (Rice, Tebonnet) = test: Preemergence herbicidal evaluation; format: in vivo, Oryza sativa, (L.) Tebonnet; conditions: rated 4-5 weeks after treatment
[1] = test system: SAGPY (Sagittaria pygmaea); test: Flooded paddy, preemergence weed control; format: in vivo, L.; conditions: rated 3-4 weeks after treatment, 0-9 rating scale
Procedure, shortened: (§1)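 Ratings of 0-9 reflect visual comparison with a control for stand, vigor, deformity, size, chlorosis and overall look. Propagules were placed in shallow silt loam (top 0.5 cm) under a continuous 1.5–3 cm flood and grown in the greenhouse.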

GALAP (Galium aparine) [2] = test: Postemergence herbicidal evaluation; format: in vivo; conditions: postemergence
Procedure, shortened: (§2)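 Visual 0–9 injury scores versus control plants, covering stand, vigour, malformation, size, chlorosis and general appearance, taken four to five weeks post-spray and averaged over replicate tests. Plants were sprayed at roughly two weeks old and held on greenhouse benches.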

CYPIR (Cyperus iria) = test: Flooded paddy, preemergence weed control; format: in vivo; conditions: rated 3-4 weeks after treatment, 0-9 rating scale
Procedure, shortened: as §1

[3] = test system: IPOHE (Ipomoea hederacea); test: Postemergence herbicidal evaluation; format: in vivo, (L.) Jacq.; conditions: postemergence
Procedure, shortened: as §2

[4] = test system: ABUTH (Abutilon theophrasti); test: Postemergence herbicidal evaluation; format: in vivo, Medic.; conditions: postemergence
Procedure, shortened: as §2

[5] = test system: GLXMAW (Soybean, Williams); test: Preemergence herbicidal evaluation; format: in vivo, Glycine max, (L.) Merr. cv Williams; conditions: rated 4-5 weeks after treatment
[6] = test system: ECHCG (Echinochloa crus-galli); test: Postemergence herbicidal evaluation; format: in vivo, (L.) Beau; conditions: postemergence
Procedure, shortened: as §2

GALAP (Galium aparine) [7] = test: Preemergence herbicidal evaluation; format: in vivo; conditions: rated 4-5 weeks after treatment
Procedure, shortened: (§3)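 Rating 0–9, visual, vs control; 4–5 wk after spraying seeded cups with compound in aq. acetone; conventional greenhouse care.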

[8] = test system: TRZAWR (Wheat, Winter, cv Riband); test: Preemergence herbicidal evaluation; format: in vivo, Triticum aestivum; conditions: rated 4-5 weeks after treatment
Procedure, shortened: as §3

[9] = test system: IPOHE (Ipomoea hederacea); test: Preemergence herbicidal evaluation; format: in vivo, (L.) Jacq.; conditions: rated 4-5 weeks after treatment
[10] = test system: GLXMAW (Soybean, Williams); test: Postemergence herbicidal evaluation; format: in vivo, Glycine max, (L.) Merr. cv Williams; conditions: postemergence
Procedure, shortened: as §2

[11] = test system: CHEAL (Chenopodium album); test: Postemergence herbicidal evaluation; format: in vivo, L.; conditions: postemergence
Procedure, shortened: as §2

[12] = test system: CASOB (Cassia obtusifolia); test: Postemergence herbicidal evaluation; format: in vivo, L.; conditions: postemergence
Procedure, shortened: as §2

[13] = test system: AMBEL (Ambrosia artemisifolia); test: Postemergence herbicidal evaluation; format: in vivo, L.; conditions: postemergence
Procedure, shortened: as §2

[14] = test system: CHEAL (Chenopodium album); test: Preemergence herbicidal evaluation; format: in vivo, L.; conditions: rated 4-5 weeks after treatment
Procedure, shortened: as §3

[15] = test system: CASOB (Cassia obtusifolia); test: Preemergence herbicidal evaluation; format: in vivo, L.; conditions: rated 4-5 weeks after treatment
Procedure, shortened: as §3

[16] = test system: AMBEL (Ambrosia artemisifolia); test: Preemergence herbicidal evaluation; format: in vivo, L.; conditions: rated 4-5 weeks after treatment
Procedure, shortened: as §3

[17] = test system: ECHORC (Echinochloa oryzoides); test: Flooded paddy, preemergence weed control; format: in vivo, Echinochloa oryzoides (Ard.) Fritsch.; conditions: rated 3-4 weeks after treatment, 0-9 rating scale
Procedure, shortened: as §1

ZEAMX (Corn, Field) [18] = test: Preemergence herbicidal evaluation; format: in vivo, Zea mays, L.; conditions: rated 4-5 weeks after treatment
ZEAMX (Corn, Field) [19] = test: Postemergence herbicidal evaluation; format: in vivo, Zea mays, L.; conditions: postemergence
Procedure, shortened: as §2

## Cn1c(C(F)(F)F)cc(=O)n(-c2ccc3snc(C4OCC(CO)O4)c3c2)c1=O (stereo not drawn) [Compound 73, 3-[3-[4-(hydroxymethyl)-1,3-dioxolan-2-yl]-1,2-benzisothiazol-5-yl]-1-methyl-6-(trifluoromethyl)uracil]
ORYSAT (Rice, Tebonnet); Rate 0.0620 kg/ha
  Preemergence herbicidal rating ORYSAT: 6.0
ORYSAT (Rice, Tebonnet); Rate 0.1250 kg/ha
  Preemergence herbicidal rating ORYSAT: 7.0
ORYSAT (Rice, Tebonnet); Rate 0.2500 kg/ha
  Preemergence herbicidal rating ORYSAT: 8.0
[1]; rate 0.0080 kg/ha
  herbicidal rating, SAGPY: 0.0
[1]; rate 0.0320 kg/ha
  herbicidal rating, SAGPY: 0.0
[1]; rate 0.1250 kg/ha
  herbicidal rating, SAGPY: 3.0
GALAP (Galium aparine) [2]; rate 0.0320 kg/ha
  GALAP herbicidal rating: 9.0
GALAP (Galium aparine) [2]; rate 0.0620 kg/ha
  GALAP herbicidal rating: 9.0
CYPIR (Cyperus iria); rate 0.0080 kg/ha
  herbicidal rating, CYPIR: 0.0
CYPIR (Cyperus iria); rate 0.0320 kg/ha
  herbicidal rating, CYPIR: 0.0
CYPIR (Cyperus iria); rate 0.1250 kg/ha
  herbicidal rating, CYPIR: 9.0
[3]; rate 0.0320 kg/ha
  IPOHE herbicidal rating: 9.0
[3]; rate 0.0620 kg/ha
  IPOHE herbicidal rating: 9.0
[4]; rate 0.0320 kg/ha
  ABUTH herbicidal rating: 9.0
[4]; rate 0.0620 kg/ha
  ABUTH herbicidal rating: 9.0
[5]; Rate 0.0620 kg/ha
  Preemergence herbicidal rating GLXMAW: 4.0
[5]; Rate 0.1250 kg/ha
  Preemergence herbicidal rating GLXMAW: 7.0
[5]; Rate 0.2500 kg/ha
  Preemergence herbicidal rating GLXMAW: 8.0
[6]; rate 0.0320 kg/ha
  ECHCG herbicidal rating: 2.0
[6]; rate 0.0620 kg/ha
  ECHCG herbicidal rating: 3.0
GALAP (Galium aparine) [7]; Rate 0.0620 kg/ha
  Preemergence herbicidal rating GALAP: 8.0
GALAP (Galium aparine) [7]; Rate 0.1250 kg/ha
  Preemergence herbicidal rating GALAP: 8.0
GALAP (Galium aparine) [7]; Rate 0.2500 kg/ha
  Preemergence herbicidal rating GALAP: 9.0
[8]; Rate 0.0620 kg/ha
  Preemergence herbicidal rating TRZAWR: 4.0
[8]; Rate 0.1250 kg/ha
  Preemergence herbicidal rating TRZAWR: 6.0
[8]; Rate 0.2500 kg/ha
  Preemergence herbicidal rating TRZAWR: 8.0
[9]; Rate 0.0620 kg/ha
  Preemergence herbicidal rating IPOHE: 7.0
[9]; Rate 0.1250 kg/ha
  Preemergence herbicidal rating IPOHE: 9.0
[9]; Rate 0.2500 kg/ha
  Preemergence herbicidal rating IPOHE: 9.0
[10]; rate 0.0320 kg/ha
  GLXMAW herbicidal rating: 5.5
[10]; rate 0.0620 kg/ha
  GLXMAW herbicidal rating: 7.5
[11]; rate 0.0320 kg/ha
  CHEAL herbicidal rating: 9.0
[11]; rate 0.0620 kg/ha
  CHEAL herbicidal rating: 9.0
[12]; rate 0.0320 kg/ha
  CASOB herbicidal rating: 3.0
[12]; rate 0.0620 kg/ha
  CASOB herbicidal rating: 4.0
[13]; rate 0.0320 kg/ha
  AMBEL herbicidal rating: 9.0
[13]; rate 0.0620 kg/ha
  AMBEL herbicidal rating: 9.0
[14]; Rate 0.0620 kg/ha
  Preemergence herbicidal rating CHEAL: 9.0
[14]; Rate 0.1250 kg/ha
  Preemergence herbicidal rating CHEAL: 9.0
[14]; Rate 0.2500 kg/ha
  Preemergence herbicidal rating CHEAL: 9.0
[15]; Rate 0.0620 kg/ha
  Preemergence herbicidal rating CASOB: 2.5
[15]; Rate 0.1250 kg/ha
  Preemergence herbicidal rating CASOB: 6.0
[15]; Rate 0.2500 kg/ha
  Preemergence herbicidal rating CASOB: 8.0
[16]; Rate 0.0620 kg/ha
  Preemergence herbicidal rating AMBEL: 8.5
[16]; Rate 0.1250 kg/ha
  Preemergence herbicidal rating AMBEL: 9.0
[16]; Rate 0.2500 kg/ha
  Preemergence herbicidal rating AMBEL: 9.0
[17]; rate 0.0080 kg/ha
  herbicidal rating, ECHORC: 0.0
[17]; rate 0.0320 kg/ha
  herbicidal rating, ECHORC: 0.0
[17]; rate 0.1250 kg/ha
  herbicidal rating, ECHORC: 7.0
ZEAMX (Corn, Field) [18]; Rate 0.0620 kg/ha
  Preemergence herbicidal rating ZEAMX: 6.5
ZEAMX (Corn, Field) [18]; Rate 0.1250 kg/ha
  Preemergence herbicidal rating ZEAMX: 9.0
ZEAMX (Corn, Field) [18]; Rate 0.2500 kg/ha
  Preemergence herbicidal rating ZEAMX: 9.0
ZEAMX (Corn, Field) [19]; rate 0.0320 kg/ha
  ZEAMX herbicidal rating: 4.5
ZEAMX (Corn, Field) [19]; rate 0.0620 kg/ha
  ZEAMX herbicidal rating: 5.0
